# Columns and labels:
# E. coli deletion mutants = experiment: Chemical genomic profiling in E. coli deletion mutants; assay type: cell-based, Escherichia coli
# Method: Chemical genomic profiling was also performed in Escherichia coli to further investigate the mechanism of action of ecteinamycin. Similar to the chemical genomic profiling with yeast, ecteinamcyin was screened against over 6,000 deletion mutant E. coli strains, genomic DNA was extracted, and mutant-specific DNA barcodes were amplified and sequenced by Illumina sequencing. Ecteinamycin sensitive and resistant mutants were determined by quantification of DNA-barcodes in order to provide a chemical genomic profile to aid in evaluating the mechanism of action (Table 7).
# [1] = Lethality of intravenous injection in mice; assay type: in vivo; conditions: 5 mg/kg IV
# Method: Eight-to-nine-week-old FVB female mice weighing 20.5 to 25.6 g were used for all studies. Animals were maintained in accordance with the American Association for Accreditation of Laboratory Care criteria. Animal studies were approved by the University of Wisconsin Animal Care Committee.
# Ecteinamycin was formulated with polyethylene glycol (PEG) 300, 25 mM Tris (1:1), pH 8.9. Mice were treated orally at 5 mg/kg or by retro-orbital intravenous injection at 2.5 mg/kg. Retro-orbital intravenous injection at 5 mg/kg was lethal. After 30 mins and 1 h, approximately 400 μL of blood was collected from the chest cavity in BD microtainer tubes with lithium heparin. Blood was centrifuged at 10,000 rpm for 10 mins Fifty μL of supernatant was added to 200 μL of acetonitrile (containing 0.1% formic acid) in a new polypropylene tube, vortexed for 1 min, and centrifuged for 10 mins at 14,000 rpm at 4° C. One hundred μL was transferred to a 96 well polypropylene microplate, 100 μL of H2O was added, and the plate was covered and shaken for 1 min and placed in the autosampler for analysis. […] Sample quantitation was determined by weighted (R^2) linear regression using a 9-point curve. […] The % oral bioavailability was calculated from the concentration of ecteinamycin (adjusted for dose) in plasma between oral and IV dose: [ecteinamycinoral]/[ecteinamycinIV]×100. […]
# [2] = test system: S. cerevisiae deletion mutants; experiment: Chemical genomic analysis in yeast deletion mutants; assay type: cell-based, Saccharomyces cerevisiae; conditions: 250 μg/mL; for Fold Change in abundance relative to solvent control: 48 h
# Method: A chemical genomic analysis of ecteinamycin was performed as described previously (Fling, S.-Y.; Sofiyev, V.; Schneiderman, J.; Hirschfeld, A. F.; Victor, R. E.; Woods, K.; Piotrowski, J. S.; Deshpande, R.; Li, S. C.; de Voogd, N. J.; Myers, C. L.; Boone, C.; Andersen, R. J.; Turvey, S. E. ACS Chem. Biol. 2014, 9, 247-257.). The optimal inhibitory concentration of ecteinamycin for chemical genomic profiling (70-80% growth versus solvent control in YP-Glucose media after 24 h of growth) was determined. A concentration of 250 μg/mL inhibited growth within this range. Two hundred μL cultures of a pooled, genome wide collection of S. cerevisiae deletion mutants with 250 μg/mL ecteinamycin or a DMSO control were grown in triplicate for 48 h at 30° C. The genomic DNA was extracted using the Epicentre MasterPure™ Yeast DNA purification kit. Mutant-specific molecular barcodes were amplified with specially designed multiplex primers containing adapters for Illumina sequencing. The barcodes were sequenced using an Illumina HiSeq2500 Rapid Run platform. Three replicates of each condition (ecteinamycin vs. DMSO) were sequenced. The barcode counts for each yeast deletion mutant in the presence of ecteinamycin were normalized against the DMSO control conditions to generate a Z-score to define sensitivity or resistance of individual strains (the chemical genomic profile). In addition, differential abundance analysis was calculated for each mutant's response to the ecteinamycin versus DMSO using edgeR. The mutants with very low counts (<5) were filtered out before using the edgeR package (version 3.4.2) to calculate an adjusted P-value and log fold change for each mutant. A Bonferroni corrected hypergeometric distribution test was used to search for significant enrichment of GO terms among the top sensitive and resistant deletion mutants with a P-value less than 0.0001.^42 The chemical genomic profile of ecteinamycin was compared against existing chemical genomic datasets by Pearson correlation.
# In parallel, chemical genomic profiling with the yeast, Saccharomyces cerevisiae, was used to investigate the mechanism of action of ecteinamycin. This method has been used for determining the mechanism of action and molecular target for many bioactive compounds, including natural products. Ecteinamcyin was screened against over four thousand deletion mutant yeast strains, genomic DNA was extracted, and mutant-specific DNA barcodes were amplified and sequenced by Illumina sequencing. Ecteinamycin sensitive and resistant mutants were determined by quantification of DNA-barcodes, providing a chemical genomic profile, which was used to evaluate the mechanism of action.
smiles,measurement,setting,value
C=C1OC(=O)C(C(=O)CC2OC(C(C)C(O)C(CC)C(=O)C(C)(O)C3CCC(CC)(C4CCC(O)(C(C)OC)C(C)O4)O3)C(C)CC2C)=C1O (stereo not drawn) [ecteinamycin],Fold Change in abundance relative to solvent control,E. coli deletion mutants; acrA deletion mutant,0.087
same,Fold Change in abundance relative to solvent control,E. coli deletion mutants; acrB deletion mutant,0.189
same,Fold Change in abundance relative to solvent control,E. coli deletion mutants; atpA deletion mutant,0.280
same,Fold Change in abundance relative to solvent control,E. coli deletion mutants; atpF deletion mutant,0.207
same,Fold Change in abundance relative to solvent control,E. coli deletion mutants; csgE deletion mutant,0.369
same,Fold Change in abundance relative to solvent control,E. coli deletion mutants; dksA deletion mutant,0.187
same,Fold Change in abundance relative to solvent control,E. coli deletion mutants; fis deletion mutant,0.416
same,Fold Change in abundance relative to solvent control,E. coli deletion mutants; hupA deletion mutant,0.518
same,Fold Change in abundance relative to solvent control,E. coli deletion mutants; kdpD deletion mutant,0.374
same,Fold Change in abundance relative to solvent control,E. coli deletion mutants; ldcA deletion mutant,0.341
same,Fold Change in abundance relative to solvent control,E. coli deletion mutants; rpoS deletion mutant,0.350
same,Fold Change in abundance relative to solvent control,E. coli deletion mutants; sapB deletion mutant,0.241
same,Fold Change in abundance relative to solvent control,E. coli deletion mutants; sapD deletion mutant,0.197
same,Fold Change in abundance relative to solvent control,E. coli deletion mutants; trkA deletion mutant,0.145
same,Fold Change in abundance relative to solvent control,E. coli deletion mutants; ycdR deletion mutant,0.287
same,Fold Change in abundance relative to solvent control,E. coli deletion mutants; yhjK deletion mutant,0.485
same,Fold Change in abundance relative to solvent control,E. coli deletion mutants; yraP deletion mutant,0.365
same,lethality of retro-orbital intravenous injection,[1],lethal
same,growth versus solvent control,"[2]; YP-Glucose media, 24 h",70-80%
same,Fold Change in abundance relative to solvent control,[2]; APL4 deletion mutant (sensitive),0.076
same,Fold Change in abundance relative to solvent control,[2]; APM2 deletion mutant (sensitive),0.037
same,Fold Change in abundance relative to solvent control,[2]; DRS2 deletion mutant (sensitive),0.040
same,Fold Change in abundance relative to solvent control,[2]; EGT2 deletion mutant (resistant),3.564
same,Fold Change in abundance relative to solvent control,[2]; HAL9 deletion mutant (resistant),3.379
same,Fold Change in abundance relative to solvent control,[2]; IRC25 deletion mutant (resistant),3.732
same,Fold Change in abundance relative to solvent control,[2]; MRH1 deletion mutant (resistant),4.129
same,Fold Change in abundance relative to solvent control,[2]; MSS11 deletion mutant (resistant),2.585
same,Fold Change in abundance relative to solvent control,[2]; PAR32 deletion mutant (sensitive),0.017
same,Fold Change in abundance relative to solvent control,[2]; PHO2 deletion mutant (resistant),5.974
same,Fold Change in abundance relative to solvent control,[2]; PHO84 deletion mutant (resistant),2.986
same,Fold Change in abundance relative to solvent control,[2]; PRE9 deletion mutant (resistant),5.995
same,Fold Change in abundance relative to solvent control,[2]; TRP4 deletion mutant (sensitive),0.136
same,Fold Change in abundance relative to solvent control,[2]; UME6 deletion mutant (resistant),10.979
same,Fold Change in abundance relative to solvent control,[2]; VPS38 deletion mutant (sensitive),0.087
same,Fold Change in abundance relative to solvent control,[2]; YMR010W deletion mutant (sensitive),0.122
same,Fold Change in abundance relative to solvent control,[2]; YOL162W deletion mutant (sensitive),0.145
same,Fold Change in abundance relative to solvent control,[2]; YPL205C deletion mutant (resistant),4.953
same,Fold Change in abundance relative to solvent control,[2]; YPR089W deletion mutant (sensitive),0.110
same,Fold Change in abundance relative to solvent control,[2]; YPT7 deletion mutant (sensitive),0.016

# Reference: patent US10660874B2, “Ecteinamycin, compositions and uses thereof” (Wisconsin Alumni Research Foundation, priority 2014, dated 2020)
